Our source for the IC50 values is patent US20140323477A1, “SERINE/THREONINE KINASE INHIBITORS” (Genentech, Inc., priority 2013, published 2014).

For this assay, the target named is T1, human recombinant PAK1-KD protein (Homo sapiens, UniProt Q13153).
T1 construct: made in house; host or cells: Tini cells (insect cells) infected with recombinant baculovirus
T1 sequence (Q13153 270-521 limits assumed): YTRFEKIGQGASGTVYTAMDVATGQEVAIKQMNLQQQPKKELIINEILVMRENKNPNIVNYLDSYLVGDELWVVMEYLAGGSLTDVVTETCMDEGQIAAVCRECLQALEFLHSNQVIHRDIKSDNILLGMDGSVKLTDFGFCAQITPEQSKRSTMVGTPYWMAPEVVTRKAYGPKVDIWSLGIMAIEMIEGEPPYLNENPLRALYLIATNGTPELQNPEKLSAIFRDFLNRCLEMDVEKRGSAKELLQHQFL
The assay is described as follows: PAK1-KD (kinase domain) IC50 Zlyte assay. In kind it is biochemical. The note with it: Z′-LYTE FRET peptide substrate (Ser/Thr19), 20 pM PAK1-KD, 60-minute incubation at 22° C. An excerpt: PAK1-KD (Kinase Domain) IC50 Zlyte Assay Protocol
Activity of human recombinant PAK1-KD protein may be assessed in vitro by assay of the phosphorylation of a FRET peptide substrate. Catalytically active human recombinant PAK1-KD protein is obtained by purification from Tini cells infected with a human PAK1-KD recombinant baculovirus expression vector.
The activity/inhibition of PAK1-KD was estimated by measuring the phosphorylation of a FRET peptide substrate (Ser/Thr19) labeled with coumarin and fluorescein using Z′-LYTE™ assay (Invitrogen). The peptide substrate is a consensus sequence (KKRNRRLSVA) based on various PAK substrates reported in the scientific literature. The 10 μL assay mixtures contained 50 mM HEPES (pH 7.5), 0.01% Brij-35, 10 mM MgCl2, 1 mM EGTA, 2 μM FRET peptide substrate, and 20 pM PAK1-KD. Incubations were carried out at 22° C. in black polypropylene 384-well plates (Corning Costar). […] Following the 60-minute incubation, the assay mixtures were quenched by the addition of 5 μL of Z′-LYTETm development reagent, and 1 hour later the emissions of Coumarin (445 nm) and Fluorescein (520 nm) were determined after excitation at 400 nm using an Envision plate reader (Perkin Elmer). An emission ratio (445 nm/520 nm) was determined to quantify the degree of substrate phosphorylation.
In general, IC50 refers to the concentration needed to halve the response being measured. For `CCn1c(=O)c(-c2cccc(S(=O)(=O)N(C)C)c2)cc2cnc(NCCC3CCN(C)CC3)nc21` [Compound I-1, 3-[8-ethyl-2-[2-(1-methyl-4-piperidyl)ethylamino]-7-oxo-pyrido[2,3-d]pyrimidin-6-yl]-N,N-dimethyl-benzenesulfonamide], the IC50 was 0.182 µM.

Take `CCNS(=O)(=O)c1ccc(-c2cc3cnc(NCCC4CCN(C)CC4)nc3n(CC)c2=O)c(C)c1` [Compound I-2, N-ethyl-4-[8-ethyl-2-[2-(1-methyl-4-piperidyl)ethylamino]-7-oxo-pyrido[2,3-d]pyrimidin-6-yl]-3-methyl-benzenesulfonamide]: the IC50 was found to be 0.133 µM.

In the case of `CCn1c(=O)c(-c2ccc(S(=O)(=O)N(C)C)cc2C)cc2cnc(NCCC3CCN(C)CC3)nc21` [Compound I-3, 4-[8-ethyl-2-[2-(1-methyl-4-piperidyl)ethylamino]-7-oxo-pyrido[2,3-d]pyrimidin-6-yl]-N,N,3-trimethyl-benzenesulfonamide], the IC50 was 1.32 µM.

As for `CCn1c(=O)c(-c2ccc(S(=O)(=O)N3CCOCC3)cc2C)cc2cnc(NCCC3CCN(C)CC3)nc21` [Compound I-4, 8-ethyl-6-(2-methyl-4-morpholinosulfonyl-phenyl)-2-[2-(1-methyl-4-piperidyl)ethylamino]pyrido[2,3-d]pyrimidin-7-one], the IC50 stood at 0.751 µM.

With `CCn1c(=O)c(-c2ccc(S(=O)(=O)N3CCCC3)cc2C)cc2cnc(NCCC3CCN(C)CC3)nc21` [Compound I-5, 8-ethyl-2-[2-(1-methyl-4-piperidyl)ethylamino]-6-(2-methyl-4-pyrrolidin-1-ylsulfonyl-phenyl)pyrido[2,3-d]pyrimidin-7-one], the half-maximal inhibitory concentration (IC50) turned out to be 0.46 µM.

As for `CCn1c(=O)c(-c2ccc(S(=O)(=O)NC3CC3)cc2C)cc2cnc(NCCC3CCN(C)CC3)nc21` [Compound I-6, N-cyclopropyl-4-[8-ethyl-2-[2-(1-methyl-4-piperidyl)ethylamino]-7-oxo-pyrido[2,3-d]pyrimidin-6-yl]-3-methyl-benzenesulfonamide], the IC50 came to 0.0771 µM.

Turning to `CCn1c(=O)c(-c2ccc(S(=O)(=O)NC)cc2C)cc2cnc(NCCC3CCN(C)CC3)nc21` [Compound I-7, 4-[8-ethyl-2-[2-(1-methyl-4-piperidyl)ethylamino]-7-oxo-pyrido[2,3-d]pyrimidin-6-yl]-N,3-dimethyl-benzenesulfonamide], the half-inhibitory concentration (IC50) was 0.582 µM.

With `CCNS(=O)(=O)c1ccc(-c2cc3cnc(NCCC4CCN(C)CC4)nc3n(CC)c2=O)c(Cl)c1` [Compound I-8, 3-chloro-N-ethyl-4-[8-ethyl-2-[2-(1-methyl-4-piperidyl)ethylamino]-7-oxo-pyrido[2,3-d]pyrimidin-6-yl]benzenesulfonamide], the IC50 is 0.0223 µM.

With `CCNc1ncc2cc(-c3ccc(S(=O)(=O)NCC)cc3Cl)c(=O)n(CC)c2n1` [Compound I-9, 3-chloro-N-ethyl-4-[8-ethyl-2-(ethylamino)-7-oxo-pyrido[2,3-d]pyrimidin-6-yl]benzenesulfonamide], the IC50 is 0.131 µM.

Consider `CNS(=O)(=O)c1ccc(-c2cc3cnc(NCCC4CCN(C)CC4)nc3n(C)c2=O)c(Cl)c1` [Compound I-10, 3-chloro-N-methyl-4-[8-methyl-2-[2-(1-methyl-4-piperidyl)ethylamino]-7-oxo-pyrido[2,3-d]pyrimidin-6-yl]benzenesulfonamide], for which the IC50 was found to be 0.82 µM.

For the compound `CCNc1ncc2cc(-c3ccc(S(=O)(=O)NC)cc3Cl)c(=O)n(C)c2n1` [Compound I-11, 3-chloro-4-[2-(ethylamino)-8-methyl-7-oxo-pyrido[2,3-d]pyrimidin-6-yl]-N-methyl-benzenesulfonamide], the IC50 came out at 1.6 µM.

Consider `CCNc1ncc2cc(-c3ccc(S(=O)(=O)NC(C)C)cc3Cl)c(=O)n(C)c2n1` [Compound I-12, 3-chloro-4-[2-(ethylamino)-8-methyl-7-oxo-pyrido[2,3-d]pyrimidin-6-yl]-N-isopropyl-benzenesulfonamide], for which the IC50 turned out to be 0.177 µM.

For `CC(C)NS(=O)(=O)c1ccc(-c2cc3cnc(NCCC4CCN(C)CC4)nc3n(C)c2=O)c(Cl)c1` [Compound I-13, 3-chloro-N-isopropyl-4-[8-methyl-2-[2-(1-methyl-4-piperidyl)ethylamino]-7-oxo-pyrido[2,3-d]pyrimidin-6-yl]benzenesulfonamide], the IC50 turned out to be 0.0804 µM.

As to `CCn1c(=O)c(-c2cc(S(=O)(=O)N(C)C)ccc2Cl)cc2cnc(NCCC3CCN(C)CC3)nc21` [Compound I-14, 4-chloro-3-[8-ethyl-2-[2-(1-methyl-4-piperidyl)ethylamino]-7-oxo-pyrido[2,3-d]pyrimidin-6-yl]-N,N-dimethyl-benzenesulfonamide], the IC50 came to 0.31 µM.
